Where two headings read alike, the source gives them in different places.
Experiments:
STAT3 = STAT3 (Homo sapiens, UniProt P40763); assay: Fluorescence polarization (FP) binding assay, STAT3
Procedure: (§1) Table S1: Activities of test compounds against STAT5a and STAT5b in FP assays . Experiments were carried out in triplicate (n = 3) unless stated otherwise. n/a: not applicable.
(§2) [a]data taken from the literature.[1]
(§3) Ki values were calculated from IC50 values using the published equation.[2] […]
(§4) Table S2: Activities of 12 against STAT5 proteins in FP assays.
(§5) Fluorescence polarization assays
(§6) Fluorescence polarization assays were essentially carried out as previously described.[1] These assays quantitate to which extent a test compound is able to interfere with binding between a STAT protein and a fluorescein-labeled phosphotyrosine-containing peptide, which is known to bind to the SH2 domain of the respective STAT protein. The following protein […]
(§7) concentrations were used: 100 nM for STAT1, 150 nM for STAT3, 30 nM for STAT4, 180 nM for STAT5a, 90 nM for STAT5b and 105 nM for STAT6. All peptides were used at a concentration of 10 nM. The following peptides were used: 5 -carboxyfluorescein -GpYDKPHVL for STAT1; 5-carboxyfluorescein -GpYLPQTV-NH2 for STAT3; 5-carboxyfluorescein-GpYLPQNID-OH for STAT4; 5-carboxyfluorescein-GpYLVLDKW for STAT5a/b, and 5-carboxyfluorescein-GpYVPWQDLI-OH for STAT6. As a buffer system, 10 mM Tris (pH 8.0), 50 mM NaCl, 1 mM EDTA, 1 mM DTT, 0.1 % Nonidet P-40 substitute, and 2 % DMSO in water was used. All compounds tested were incubated for 1 h with the protein. Subsequently, the fluorescein-labeled peptide was added and the fluorescence polarization was measured with an Infinite F500 plate reader (Tecan) after another hour. IC50 values were converted to Ki-values using the published equation.[2]

STAT5b = target: T1, STAT5b (Homo sapiens, UniProt P51692); assay: Fluorescence polarization (FP) binding assay, STAT5b
T1 sequence (P51692 1-787): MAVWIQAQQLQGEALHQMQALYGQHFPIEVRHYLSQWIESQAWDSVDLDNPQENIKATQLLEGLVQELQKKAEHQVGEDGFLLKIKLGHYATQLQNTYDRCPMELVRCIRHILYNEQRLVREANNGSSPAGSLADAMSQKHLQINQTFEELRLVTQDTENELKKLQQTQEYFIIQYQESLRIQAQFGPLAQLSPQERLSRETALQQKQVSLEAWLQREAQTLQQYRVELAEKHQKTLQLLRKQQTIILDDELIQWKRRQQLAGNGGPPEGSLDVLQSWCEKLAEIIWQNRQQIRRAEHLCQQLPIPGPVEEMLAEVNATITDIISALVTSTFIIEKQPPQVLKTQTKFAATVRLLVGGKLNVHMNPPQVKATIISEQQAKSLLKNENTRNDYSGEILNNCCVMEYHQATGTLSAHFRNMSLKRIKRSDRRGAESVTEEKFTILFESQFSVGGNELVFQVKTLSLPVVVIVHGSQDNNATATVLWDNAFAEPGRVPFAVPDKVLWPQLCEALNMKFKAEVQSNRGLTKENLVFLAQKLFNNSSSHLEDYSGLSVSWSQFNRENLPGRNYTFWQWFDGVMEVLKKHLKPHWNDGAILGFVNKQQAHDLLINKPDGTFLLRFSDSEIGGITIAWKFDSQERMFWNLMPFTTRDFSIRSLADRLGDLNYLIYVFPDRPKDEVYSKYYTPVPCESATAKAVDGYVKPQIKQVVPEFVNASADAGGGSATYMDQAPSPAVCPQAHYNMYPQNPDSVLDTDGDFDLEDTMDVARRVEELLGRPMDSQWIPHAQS
Procedure: as §1, §2, §3, §4, §5, §6, §7

STAT5a = target: T2, STAT5a (Homo sapiens, UniProt P42229); assay: Fluorescence polarization (FP) binding assay, STAT5a; conditions: for selectivity with respect to other STAT family members: FP assays against STAT1, STAT3, STAT4, STAT6
T2 sequence (P42229 1-794): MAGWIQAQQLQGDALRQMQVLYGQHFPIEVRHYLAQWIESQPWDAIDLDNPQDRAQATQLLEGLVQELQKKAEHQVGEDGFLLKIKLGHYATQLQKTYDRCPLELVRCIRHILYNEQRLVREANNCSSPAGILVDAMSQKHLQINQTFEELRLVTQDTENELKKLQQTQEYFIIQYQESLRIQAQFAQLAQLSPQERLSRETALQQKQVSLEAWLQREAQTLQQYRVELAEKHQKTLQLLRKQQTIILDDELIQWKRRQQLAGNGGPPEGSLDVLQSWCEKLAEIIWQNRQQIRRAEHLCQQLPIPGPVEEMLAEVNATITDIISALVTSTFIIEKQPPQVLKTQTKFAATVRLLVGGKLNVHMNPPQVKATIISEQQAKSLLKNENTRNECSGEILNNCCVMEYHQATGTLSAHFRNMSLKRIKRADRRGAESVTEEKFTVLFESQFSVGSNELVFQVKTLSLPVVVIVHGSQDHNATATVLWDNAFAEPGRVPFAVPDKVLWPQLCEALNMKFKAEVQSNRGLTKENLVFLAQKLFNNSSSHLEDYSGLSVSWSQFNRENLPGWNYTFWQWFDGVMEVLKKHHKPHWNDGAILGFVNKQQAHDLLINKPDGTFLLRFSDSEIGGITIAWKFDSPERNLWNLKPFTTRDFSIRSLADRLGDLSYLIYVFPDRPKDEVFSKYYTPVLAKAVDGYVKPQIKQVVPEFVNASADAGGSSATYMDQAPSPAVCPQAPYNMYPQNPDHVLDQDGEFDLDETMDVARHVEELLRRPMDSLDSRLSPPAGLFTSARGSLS
Procedure: as §1, §2, §3, §4, §5, §6, §7

Sequence of STAT3 (P40763 whole entry, species assumed): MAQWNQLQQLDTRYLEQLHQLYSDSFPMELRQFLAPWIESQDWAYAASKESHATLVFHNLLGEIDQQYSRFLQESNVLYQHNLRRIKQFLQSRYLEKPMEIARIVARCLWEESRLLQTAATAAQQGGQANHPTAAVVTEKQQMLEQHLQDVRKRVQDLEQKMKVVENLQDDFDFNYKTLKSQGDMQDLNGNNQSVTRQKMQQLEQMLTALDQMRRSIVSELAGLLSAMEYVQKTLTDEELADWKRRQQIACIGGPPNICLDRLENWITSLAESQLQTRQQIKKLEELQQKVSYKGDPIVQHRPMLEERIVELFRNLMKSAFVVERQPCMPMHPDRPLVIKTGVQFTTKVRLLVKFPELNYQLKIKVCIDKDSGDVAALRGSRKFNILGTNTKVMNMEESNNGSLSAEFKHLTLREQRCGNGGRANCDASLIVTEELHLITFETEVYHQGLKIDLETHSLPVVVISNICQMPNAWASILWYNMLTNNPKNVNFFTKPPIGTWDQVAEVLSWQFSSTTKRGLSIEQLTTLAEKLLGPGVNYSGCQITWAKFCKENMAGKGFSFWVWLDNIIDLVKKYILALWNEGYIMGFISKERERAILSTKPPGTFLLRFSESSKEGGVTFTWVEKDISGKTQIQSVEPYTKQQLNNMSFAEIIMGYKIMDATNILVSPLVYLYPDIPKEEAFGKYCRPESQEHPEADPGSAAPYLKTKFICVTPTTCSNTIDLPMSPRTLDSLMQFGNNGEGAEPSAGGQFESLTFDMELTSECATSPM

SMILES | inhibition at 200 µM (STAT3; read-out: STAT3 inhibition at 200 μM) [%] | IC50 (STAT5b) [µM] | Ki (STAT5b) [µM] | IC50 (STAT5a) [µM] | Ki (STAT5a) [µM] | selectivity with respect to other STAT family members (STAT5a) | IC50 (STAT3; FP assay) [µM] | Ki (STAT3; FP assay, Ki calculated from IC50 (n=3)) [µM] | Ki (STAT5b; FP assay, Ki calculated from IC50 (n=3; 6 a n=2), read-out: STAT5b Ki) [µM] | IC50 (STAT5b; FP assay, n=3 (6a n=2), read-out: STAT5b IC50) [µM] | Ki (STAT5a; FP assay, Ki calculated from IC50 (n=3; 6 a n=2), read-out: STAT5a Ki) [µM] | IC50 (STAT5a; FP assay, n=3 (6a n=2), read-out: STAT5a IC50) [µM]
COc1cc(-c2cc(OP(=O)(O)O)cc(-c3cc(F)c(F)c(F)c3)c2)cc(OC)c1OC [6 b] | 25 ± 3 | 59.4 ± 3.4 | 29.2 ± 1.7 | 22.1 ± 0.4 | 10.9 ± 0.2 | good selectivity |  |  |  |  |  | 
COc1cc(-c2cc(-c3cc(F)c(F)c(F)c3)cc(C(F)P(=O)(O)O)c2)cc(OC)c1OC (stereo not shown) [compound 12] |  |  |  |  |  | retains selectivity | 145 ± 6.8 | 71.7 ± 3.4 | 24.9 ± 3.3 | 50.7 ± 6.8 | 20 ± 2.1 | 40.4 ± 4.3
